Each block holds one compound with its values, some of them ahead of it.
What was measured:
[1] = Inhibition of o-dianisidine oxidation induced by reaction of ferrous sulfate with hydrogen peroxide (colorimetric, 460 nm); type: biochemical
Method: (§1) All chemicals used in the following first 4 EXAMPLES for this invention were of analytical quality. A colorimeter was used to detect peroxidations of o-dianisidine, 9 mg/dL, as chromogenic hydrogen donor when oxidized, with its absorbance measured at 460 nm in saline solutions (140 mM NaCl, buffered by 3 mM phosphate salts at pH 7.4). Ferrous sulfate or human hemoglobin was added to control and to test solutions containing uric acid or ascorbic acid shortly before the addition of hydrogen peroxide, with oxidized molecules of dianisidine measured promptly. The saline solutions were mimetic of cerebrospinal fluid except devoid of possible confounding other molecules.
Uric Acid Inhibition of Substrate Oxidations Induced by Reaction of Ferrous Sulfate (9.8 Micromolar) with 20 Micromolar Hydrogen Peroxide
Comment: All incubations were done at 25-28° Celsius.
Ascorbic Acid Inhibition at 1.6 mg/dl of Substrate Oxidation Induced by Reaction of Ferrous Sulfate (9.8 Micromolar) with 20 Micromolar Hydrogen Peroxide

[2] = biological target: human hemoglobin (Homo sapiens, UniProt P68871+P69905); experiment: Inhibition of o-dianisidine oxidation by human hemoglobin in reaction with hydrogen peroxide (colorimetric, 460 nm); type: biochemical; settings: hemoglobin 12 mg/dl, 20 micromolar H2O2
Method: as §1
Uric Acid Inhibition of Substrate Oxidation by Human Hemoglobin Level of 12 mg/dl in Reaction with 20 Micromolar Hydrogen Peroxide
Ascorbic Acid Inhibition at 1.6 mg/dl of Substrate Oxidation Induced by Human Hemoglobin Level of 12 mg//dl in Reaction with 20 Micromolar Hydrogen Peroxide
Comments: The inhibition remained virtually complete in EXAMPLE 4 at 10 minutes of continued exposure to the hydrogen peroxide, in spite of greater absorbance increase or oxidation in the control solutions from continuing reaction of the peroxide with the iron that resided in the hemoglobin. […] He used higher concentrations of hemoglobin and hydrogen peroxide (e.g. 0.67 or 0.8 mM of hydrogen peroxide) in phosphate-saline buffer with 2 hour incubations at 37° C.

[3] = cited from earlier work; for elevating human serum uric acid levels when given orally: humans (normal adults and gouty individuals), literature
[4] = known in the art, in words; cited from earlier work
[5] = intravenously, healthy humans; Chamorro A et al., 2004; cited from earlier work
[6] = Ascorbate 1.6 mg/dL, 5 min. after H2O2, n = 4
[7] = Ascorbate 1.6 mg/dL, 10 min. after H2O2, n = 4
[8] = Urate 0.5 mg/dL, 5 min. after H2O2, n 4
[9] = Urate 0.5 mg/dL, 10 min. after H2O2, n 4
[10] = Urate 6.0 mg/dL, 10 min. after H2O2, n 4

Chain of human hemoglobin (P69905 2-142 limits assumed): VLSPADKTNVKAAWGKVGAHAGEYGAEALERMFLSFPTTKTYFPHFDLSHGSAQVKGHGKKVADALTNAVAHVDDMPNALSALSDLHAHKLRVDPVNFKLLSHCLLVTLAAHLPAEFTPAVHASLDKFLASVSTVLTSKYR
Chain of human hemoglobin (P68871 2-147 limits assumed): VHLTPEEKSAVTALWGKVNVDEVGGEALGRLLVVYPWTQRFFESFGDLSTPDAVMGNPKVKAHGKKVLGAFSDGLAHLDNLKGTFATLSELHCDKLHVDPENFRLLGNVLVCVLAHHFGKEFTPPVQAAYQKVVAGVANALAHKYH

- % Inhibition [2, 6]: 100.0 ± 0.0 %
- Absorbance Increase [2, 6]: 0.000 ± 0.000
- % Inhibition [2, 7]: 99.8 ± 1.2 %
- Absorbance Increase [2, 7]: 0.001 ± 0.008
Compound: O=C1O[C@H]([C@@H](O)CO)C(O)=C1O [Ascorbate, L-ascorbic acid]
- Absorbance Increase ([1]; Ascorbate 1.6 mg/dL, 5 min. after H2O2, mean ± s.e.m., n = 4): 0.000 ± 0.000
- % Inhibition [1, 6]: 100.0 ± 0.0 %
- % Inhibition [1, 7]: 100.0 ± 0.0 %
- Absorbance Increase [1, 7]: 0.000 ± 0.000

Compound: O=c1[nH]cnc2nc[nH]c12 [hypoxanthine]
- raise of serum or plasma uric acid level ([3]; about 0.9 gram given orally (0.1 mmole/kg), persons of near 70 kg, Clifford A J et al., 1976): about 2.4 mg/dL
- elevating human serum uric acid levels when given orally [3]: effectively raise serum uric acid levels
- solubility in water [4]: more soluble in water

- % Inhibition [2, 8]: 50.7 ± 7.56 %
- Absorbance Increase [2, 8]: 0.028 ± 0.004
- % Inhibition [2, 9]: 38.8 ± 3.25 %
- Absorbance Increase [2, 9]: 0.052 ± 0.009
- Absorbance Increase ([2]; Urate 6.0 mg/dL, 5 min. after H2O2, mean ± s.e.m., n 4): 0.006 ± 0.002
- % Inhibition ([2]; Urate 6.0 mg/dL, 5 min. after H2O2, n 4): 90.6 ± 0.90 %
- % Inhibition [2, 10]: 80.3 ± 3.54 %
- Absorbance Increase [2, 10]: 0.016 ± 0.005
Compound: O=c1[nH]c(=O)c2[nH]c(=O)[nH]c2[nH]1 [Urate, 2,6,8-oxypurine]
- tolerability of intravenous administration [5]: without untoward effects
- elevating human serum uric acid levels when given orally [3]: ineffective
- Absorbance Increase ([1]; Urate 0.5 mg/dL, 5 min. after H2O2, 460 nm, mean ± s.e.m., n 5): 0.030 ± 0.003
- % Inhibition ([1]; Urate 0.5 mg/dL, 5 min. after H2O2, mean ± s.e.m., n 5): 36.8 ± 5.3 %
- Absorbance Increase ([1]; Urate 0.5 mg/dL, 10 min. after H2O2, 460 nm, mean ± s.e.m., n 5): 0.034 ± 0.017
- % Inhibition ([1]; Urate 0.5 mg/dL, 10 min. after H2O2, mean ± s.e.m., n 5): 26.5 ± 5.5 %
- Absorbance Increase ([1]; Urate 6.0 mg/dL, 5 min. after H2O2, 460 nm, pH 7.4 saline, 25-28° Celsius, mean ± s.e.m., n 5): 0.012 ± 0.003
- % Inhibition ([1]; Urate 6.0 mg/dL, 5 min. after H2O2, mean ± s.e.m., n 5): 75.3 ± 4.8 %
- Absorbance Increase ([1]; Urate 6.0 mg/dL, 10 min. after H2O2, 460 nm, mean ± s.e.m., n 5): 0.014 ± 0.003
- % Inhibition ([1]; Urate 6.0 mg/dL, 10 min. after H2O2, mean ± s.e.m., n 5): 70.9 ± 4.5 %
- solubility in water [4]: difficulty soluble in water

Compound: O=c1[nH]c(=O)c2[nH]cnc2[nH]1 [xanthine]
- elevating human serum uric acid levels when given orally [3]: not
- solubility in water [4]: difficulty soluble in water
